IC50 data for one compound are collected here from article PMC12801976, “Enzyme-Powered CO2 Utilization: A Bifunctional Immobilized Biocatalyst for Intensified CCU of Industrial Feedstocks to High-Value Chemicals” (ACS Sustainable Chemistry & Engineering, 2025).

pIC50: −log10 of the molar value.

This test concerns the target T1, glycerol dehydrogenase (GlyDH).
T1 construct: His-tagged, produced and purified in house (details only in SI); multimeric zinc metalloenzyme; free enzyme
The test is described as follows: NADH formation at […] nm, DHA dose series. It is filed as biochemical. The settings on record: free enzyme; product inhibition; standard assay 100 mM glycerol, 2.5 mM NAD+, 100 mM phosphate pH 7.0, 30 °C.

Compound `O=C(CO)CO` [DHA, dihydroxyacetone] gave a pIC50 of 3.48.

The pIC50 is −log10 of the IC50, conventionally taken in molar units. Low readings indicate a large IC50, high ones a small IC50.
